According to PubChem BioAssay AID248 (DTP/NCI, 2004):
Where “and” joins values, the source holds several entries; their conditions need not be identical. Equal entries are not always repeated. Inconclusive results and toxic doses are left out.

Tested on: L1210 leukemia ip in BDF1 mice, survival T/C
Test: NCI In Vivo Anticancer Drug Screen. Data for tumor model L1210 Leukemia (intraperitoneal) in B6D2F1 (BDF1) mice
Details: endpoint: mean survival time, higher = longer survival
Summary of the method: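 Transplantable tumor model; survival measured in treated vs vehicle control mice. Value = treated/control.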

[1] = dose: 100.0 mg/kg/injection, schedule: Q01DX009 (ip), vehicle: saline
[2] = dose: 100.0 mg/kg/injection, schedule: Q04DX003 (ip), vehicle: saline
[3] = dose: 200.0 mg/kg/injection, schedule: Q04DX003 (ip), vehicle: saline
[4] = dose: 400.0 mg/kg/injection, schedule: Q04DX003 (ip), vehicle: saline
[5] = dose: 100.0 mg/kg/injection, schedule: Q01DX009 (ip), vehicle: Klucel (hydroxypropylcellulose) (HPC)
[6] = dose: 200.0 mg/kg/injection, schedule: Q01DX009 (ip), vehicle: Klucel (hydroxypropylcellulose) (HPC)
[7] = dose: 400.0 mg/kg/injection, schedule: Q01DX009 (ip), vehicle: Klucel (hydroxypropylcellulose) (HPC)
[8] = dose: 100.0 mg/kg/injection, schedule: Q01DX009 (ip), vehicle: saline with Tween-80
[9] = dose: 100.0 mg/kg/injection, schedule: Q04DX003 (ip), vehicle: saline with Tween-80
[10] = dose: 200.0 mg/kg/injection, schedule: Q01DX009 (ip), vehicle: saline with Tween-80
[11] = dose: 200.0 mg/kg/injection, schedule: Q04DX003 (ip), vehicle: saline with Tween-80
[12] = dose: 400.0 mg/kg/injection, schedule: Q01DX009 (ip), vehicle: saline with Tween-80
[13] = dose: 400.0 mg/kg/injection, schedule: Q04DX003 (ip), vehicle: saline with Tween-80
[14] = dose: 100.0 mg/kg/injection, schedule: Q04DX003 (ip), vehicle: Klucel (hydroxypropylcellulose) (HPC)
[15] = dose: 200.0 mg/kg/injection, schedule: Q04DX003 (ip), vehicle: Klucel (hydroxypropylcellulose) (HPC)
[16] = dose: 400.0 mg/kg/injection, schedule: Q04DX003 (ip), vehicle: Klucel (hydroxypropylcellulose) (HPC)

`COc1cc2c[n+](C)c3c4cc(OC)c(OC)cc4ccc3c2cc1OC` was tested, and the T/C (dose: 9.6 mg/kg/injection, schedule: Q01DX009 (ip), vehicle: saline with Tween-80) was 119 % of control, the T/C (dose: 12.5 mg/kg/injection, schedule: Q01DX009 (ip), vehicle: water) was 111 % of control and the T/C (dose: 14.0 mg/kg/injection, schedule: Q01DX009 (ip), vehicle: saline with Tween-80) was 115 % of control. The T/C (dose: 25.0 mg/kg/injection, schedule: Q01DX009 (ip), vehicle: water) was 110 % of control and 122 % of control, the T/C (dose: 50.0 mg/kg/injection, schedule: Q01DX009 (ip), vehicle: water) was 109 % of control and 114 % of control and the T/C [1] was 123 % of control. For the same compound, the T/C [2] was 100 % of control, the T/C (dose: 100.0 mg/kg/injection, schedule: Q04DX003 (ip), vehicle: water) was 112 % of control and the T/C (dose: 180.0 mg/kg/injection, schedule: Q01DX009 (ip), vehicle: saline) was 109 % of control. The T/C [3] was 104 % of control, the T/C (dose: 200.0 mg/kg/injection, schedule: Q04DX003 (ip), vehicle: water) was 113 % of control and the T/C (dose: 240.0 mg/kg/injection, schedule: Q04DX003 (ip), vehicle: water) was 112 % of control. For the same compound, the T/C [4] was 110 % of control and the T/C (dose: 400.0 mg/kg/injection, schedule: Q04DX003 (ip), vehicle: water) was 107 % of control.

`O=P(c1ccccc1)(N1CCCC1)N1CCCC1` was tested, and the T/C [2] was 95 % of control and the T/C [3] was 92 % of control.

With `CC(=O)OC1C=CN(C(C)=O)C(SC23CC4CC(CC(C4)C2)C3)C1O` (stereo not drawn) the T/C [5] was 97 % of control, the T/C [6] was 97 % of control and the T/C [7] was 95 % of control.

`O=C1C(Cl)=C(N/N=c2/[nH][nH]/c(=N/NC3=C(Cl)C(=O)c4ccccc4C3=O)c3ccccc23)C(=O)c2ccccc21` was tested, and the T/C (dose: 25.0 mg/kg/injection, schedule: Q01DX001 (ip), vehicle: carboxymethylcellulose (CMC)) was 104 % of control and the T/C (dose: 50.0 mg/kg/injection, schedule: Q01DX001 (ip), vehicle: carboxymethylcellulose (CMC)) was 101 % of control.

In the case of `Cc1cccc(C)c1NC(=S)N(CCC#N)Cc1ccccc1`, the T/C [5] is reported as 107 % of control, the T/C [6] is reported as 94 % of control and the T/C [7] is reported as 96 % of control.

In the case of `O=S(OCCCl)OCCCl`, the T/C (dose: 75.0 mg/kg/injection, schedule: Q04DX003 (ip), vehicle: Klucel (hydroxypropylcellulose) (HPC)) is reported as 91 % of control, the T/C (dose: 150.0 mg/kg/injection, schedule: Q04DX003 (ip), vehicle: Klucel (hydroxypropylcellulose) (HPC)) is reported as 102 % of control and the T/C (dose: 300.0 mg/kg/injection, schedule: Q04DX003 (ip), vehicle: Klucel (hydroxypropylcellulose) (HPC)) is reported as 98 % of control.

In the case of `COCC(O)C(OC)C(OC)C(C=O)NC(=O)N(CCCl)N=O` (stereo not drawn), the T/C (dose: 14.0 mg/kg/injection, schedule: Q01DX001 (ip), vehicle: saline with Tween-80) is reported as 159 % of control, the T/C (dose: 22.0 mg/kg/injection, schedule: Q01DX001 (ip), vehicle: saline with Tween-80) is reported as 181 % of control and the T/C (dose: 33.5 mg/kg/injection, schedule: Q01DX001 (ip), vehicle: saline with Tween-80) is reported as 331 % of control. The T/C (dose: 50.0 mg/kg/injection, schedule: Q01DX001 (ip), vehicle: saline with Tween-80) was 431 % of control, the T/C (dose: 75.0 mg/kg/injection, schedule: Q01DX001 (ip), vehicle: saline with Tween-80) was 489 % of control and the T/C (dose: 112.0 mg/kg/injection, schedule: Q01DX001 (ip), vehicle: saline with Tween-80) was 227 % of control.

For `O=C(NC(Cc1cnc[nH]1)C(=O)O)OCc1ccccc1` (stereo not drawn), the T/C [8] was 100 % of control, the T/C [9] was 100 % of control and the T/C [10] was 100 % of control. The T/C [11] was 98 % of control, the T/C [12] was 96 % of control and the T/C [13] was 101 % of control.

With `C[Si](C)(C)Oc1cc(N=NNC2=CC(=O)c3ccccc3C2=O)c(O)c2ccccc12` the T/C (dose: 12.5 mg/kg/injection, schedule: Q04DX003 (ip), vehicle: saline with Tween-80) was 93 % of control, the T/C (dose: 25.0 mg/kg/injection, schedule: Q04DX003 (ip), vehicle: saline with Tween-80) was 93 % of control and the T/C (dose: 50.0 mg/kg/injection, schedule: Q04DX003 (ip), vehicle: saline with Tween-80) was 94 % of control. For the same compound, the T/C [13] was 97 % of control.

In the case of `O=C(C(Sc1ccccc1)=P(c1ccccc1)(c1ccccc1)c1ccccc1)c1ccccc1`, the T/C [9] is reported as 90 % of control and the T/C [11] is reported as 90 % of control.

In the case of `NC(CSCCc1ccccn1)C(=O)O` (stereo not drawn), the T/C [1] is reported as 107 % of control, the T/C [2] is reported as 101 % of control and the T/C (dose: 200.0 mg/kg/injection, schedule: Q01DX009 (ip), vehicle: saline) is reported as 104 % of control. For the same compound, the T/C [3] was 104 % of control, the T/C (dose: 400.0 mg/kg/injection, schedule: Q01DX009 (ip), vehicle: saline) was 105 % of control and the T/C [4] was 94 % of control.

For `CCOC(=O)c1ccc(NC(=O)CN2CCOCC2)cc1`, the T/C (dose: 222.0 mg/kg/injection, schedule: Q01DX Z (ip), vehicle: saline) was 102 % of control, the T/C (dose: 333.0 mg/kg/injection, schedule: Q01DX Z (ip), vehicle: saline) was 98 % of control and the T/C (dose: 500.0 mg/kg/injection, schedule: Q01DX Z (ip), vehicle: saline) was 90 % of control.

For `CC(=O)Nc1cccc([As](=O)(c2cccc(NC(C)=O)c2)c2cccc(NC(C)=O)c2)c1`, the T/C (dose: 55.0 mg/kg/injection, schedule: Q01DX Z (ip), vehicle: methylcellulose (MC)) was 98 % of control and the T/C (dose: 125.0 mg/kg/injection, schedule: Q01DX Z (ip), vehicle: methylcellulose (MC)) was 98 % of control.

For `CCOC1=CCN(S(=O)(=O)c2ccc(C)cc2)c2ccc(OC)cc21`, the T/C [5] was 100 % of control, the T/C [14] was 104 % of control and the T/C [6] was 96 % of control. The T/C [15] was 94 % of control, the T/C [7] was 89 % of control and the T/C [16] was 98 % of control.

`C[n+]1ccc(Nc2ccc(NC(=O)c3ccc(Nc4cc[n+](C)c5ccc([N+](=O)[O-])cc45)cc3)cc2)cc1` was tested, and the T/C (dose: 1.0 mg/kg/injection, schedule: Q01DX009 (ip), vehicle: water) was 99 % of control, the T/C (dose: 2.0 mg/kg/injection, schedule: Q01DX009 (ip), vehicle: water) was 112 % of control and the T/C (dose: 4.0 mg/kg/injection, schedule: Q01DX009 (ip), vehicle: water) was 119 % of control. For the same compound, the T/C (dose: 8.0 mg/kg/injection, schedule: Q01DX009 (ip), vehicle: water) was 116 % of control, the T/C (dose: 16.0 mg/kg/injection, schedule: Q01DX009 (ip), vehicle: water) was 192 % of control and the T/C (dose: 32.0 mg/kg/injection, schedule: Q01DX009 (ip), vehicle: water) was 262 % of control. For the same compound, the T/C [2] was 201 % of control and 219 % of control, the T/C [3] was 213 % of control and the T/C [4] was 150 % of control and 153 % of control.

`O=C(Nc1ccc(F)c([N+](=O)[O-])c1)Nc1cc(C(F)(F)F)ccc1Cl` was tested, and the T/C [5] was 101 % of control, the T/C [6] was 90 % of control and the T/C [7] was 89 % of control.

`C/C(=C\Br)OC1CCCCO1` (stereo not drawn) was tested, and the T/C (dose: 100.0 mg/kg/injection, schedule: Q01DX009 (ip), vehicle: acetone) was 96 % of control, the T/C (dose: 200.0 mg/kg/injection, schedule: Q01DX009 (ip), vehicle: acetone) was 96 % of control and the T/C (dose: 400.0 mg/kg/injection, schedule: Q01DX009 (ip), vehicle: acetone) was 92 % of control.

With `CCCCC(CC)CCC(=O)CC(C)C` (stereo not drawn) the T/C [5] was 91 % of control, the T/C [14] was 108 % of control and the T/C [6] was 102 % of control. The T/C [15] was 98 % of control and the T/C [16] was 98 % of control.

With `CCOC(=O)N1CCN(CCO)CC1` the T/C [2] was 102 % of control and the T/C [3] was 94 % of control.

With `CCOC(=O)CC1c2nc3ccccc3cc2CN1C(=O)CCOCc1ccccc1` (stereo not drawn) the T/C (dose: 10.0 mg/kg/injection, schedule: Q04DX003 (ip), vehicle: alcohol) was 92 % of control, the T/C (dose: 20.0 mg/kg/injection, schedule: Q04DX003 (ip), vehicle: alcohol) was 92 % of control and the T/C (dose: 40.0 mg/kg/injection, schedule: Q04DX003 (ip), vehicle: alcohol) was 100 % of control. For the same compound, the T/C (dose: 80.0 mg/kg/injection, schedule: Q04DX003 (ip), vehicle: alcohol) was 96 % of control and the T/C (dose: 160.0 mg/kg/injection, schedule: Q04DX003 (ip), vehicle: alcohol) was 89 % of control.

`Cc1ccccc1OC(F)(F)C(F)Cl` (stereo not drawn) was tested, and the T/C [8] was 103 % of control, the T/C [9] was 96 % of control and the T/C [10] was 91 % of control. For the same compound, the T/C [11] was 94 % of control, the T/C [12] was 86 % of control and the T/C [13] was 96 % of control.

For `Cc1cccc(Cl)c1NC(=O)C(Cl)Cl`, the T/C (dose: 100.0 mg/kg/injection, schedule: Q04DX002 (ip), vehicle: Klucel (hydroxypropylcellulose) (HPC)) was 113 % of control, the T/C (dose: 200.0 mg/kg/injection, schedule: Q04DX002 (ip), vehicle: Klucel (hydroxypropylcellulose) (HPC)) was 107 % of control and the T/C (dose: 400.0 mg/kg/injection, schedule: Q04DX002 (ip), vehicle: Klucel (hydroxypropylcellulose) (HPC)) was 110 % of control.
